Measurements taken from US20240067693A1, “POLYPEPTIDES AND USES THEREOF” (MEDIMMUNE LIMITED, priority 2020, published 2024).
Numbered stars: 1 amine (or outer) side, 2 acyl side, 3 side chain; on linkers, the order of the positions; unused ones are H or OH. Bridge positions count the residues as written; N and C are the ends. Square brackets hold non-standard residues; d marks the D form. Side chains are listed from the residue outwards. Peptide text beside a SMILES is read from it. * marks the point of attachment. C18 diacid = O=C(O)CCCCCCCCCCCCCCCCC(=O)*; γGlu = O=C(O)[C@H](CCC(=O)[*:2])N[*:1]; Aib = CC(C)(N)C(=O)O

Assays:
[1] = target: T1, human amylin receptor (calcitonin receptor co-expressed with receptor activity modifying protein, RAMP3) (hAMYR3) (Homo sapiens, UniProt O60896+P30988); assay: cAMP production in 1321N1 cells with stable recombinant expression of human amylin receptor (hAMYR3); assay type: cell-based; details: for Ratio (selectivity hAMYR vs hCTR, ratio of EC50 values at the two receptors): EC50 hCTR / EC50 hAMYR3; for EC50: cAMP, 1321N1 cells, assay buffer with 0.1% BSA, read-out: EC50 (pM) hAMYR3
T1 construct: expressed in transfected cells
T1 sequence (P30988 25-474): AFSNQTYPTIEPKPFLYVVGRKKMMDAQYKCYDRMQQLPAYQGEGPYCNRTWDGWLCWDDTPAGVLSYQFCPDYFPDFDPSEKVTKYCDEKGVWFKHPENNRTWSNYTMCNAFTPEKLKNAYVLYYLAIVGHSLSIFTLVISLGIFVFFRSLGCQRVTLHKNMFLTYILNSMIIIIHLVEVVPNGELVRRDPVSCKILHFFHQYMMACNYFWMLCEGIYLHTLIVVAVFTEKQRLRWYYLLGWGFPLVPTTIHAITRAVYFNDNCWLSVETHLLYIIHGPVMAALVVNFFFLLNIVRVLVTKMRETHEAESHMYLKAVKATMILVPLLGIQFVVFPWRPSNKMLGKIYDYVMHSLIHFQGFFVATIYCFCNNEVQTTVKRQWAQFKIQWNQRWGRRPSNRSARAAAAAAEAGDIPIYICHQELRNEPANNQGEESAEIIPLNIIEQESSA
T1 sequence (O60896 24-148 partner): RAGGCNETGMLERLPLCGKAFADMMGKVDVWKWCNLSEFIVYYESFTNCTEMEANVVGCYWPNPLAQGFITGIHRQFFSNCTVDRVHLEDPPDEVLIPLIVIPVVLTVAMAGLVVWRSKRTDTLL
Procedure, shortened: (§1)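 Receptor-expressing cells (human receptors in 1321N1, rat receptors in HEK) incubated 30 min at room temperature with peptide in HBSS/HEPES pH 7.4, 0.1% BSA, 0.5 mM IBMX. cAMP read by HTRF; EC50 from 4-parameter fit as % of maximal amylin or calcitonin response.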

[2] = target: T2, human calcitonin receptor (hCTR) (Homo sapiens, UniProt P30988); assay: cAMP production in 1321N1 cells with stable recombinant expression of human calcitonin receptor (hCTR); assay type: cell-based; details: cAMP, 1321N1 cells, assay buffer with 0.1% BSA; read-out: EC50 (pM) hCTR
T2 construct: expressed in transfected cells
T2 sequence (P30988 25-474): T1 sequence (P30988 25-474)
Procedure, shortened: as §1

SMILES | Ratio (selectivity hAMYR vs hCTR, ratio of EC50 values at the two receptors) [1] | EC50 [1] [pM] | EC50 [2] [pM]
CC[C@H](C)[C@H](NC(=O)[C@@H]1CCCN1C(=O)CNC(=O)[C@H](Cc1ccccc1)NC(=O)[C@H](CC(N)=O)NC(=O)C(C)(C)NC(=O)[C@H](CO)NC(=O)[C@H](CO)NC(=O)[C@H](Cc1c[nH]cn1)NC(=O)[C@@H](NC(=O)[C@H](CC(C)C)NC(=O)[C@H](Cc1ccccc1)NC(=O)[C@H](CC(N)=O)NC(=O)[C@H](C)NC(=O)[C@H](CC(C)C)NC(=O)[C@H](CCCNC(=N)N)NC(=O)[C@H](CCC(N)=O)NC(=O)[C@@H](NC(=O)[C@H](C)NC(=O)[C@@H]1CSSC[C@H](NC(=O)[C@@H](N)CCCCNC(=O)CC[C@H](NC(=O)CC[C@H](NC(=O)CCCCCCCCCCCCCCCCC(=O)O)C(=O)O)C(=O)O)C(=O)N[C@@H](CC(N)=O)C(=O)N[C@@H]([C@@H](C)O)C(=O)N[C@@H](C)C(=O)N[C@@H]([C@@H](C)O)C(=O)N1)[C@@H](C)O)C(C)C)C(=O)N[C@@H](CC(C)C)C(=O)N1CCC[C@H]1C(=O)N1CCC[C@H]1C(=O)N[C@H](C(=O)N[C@@H](CCC(=O)O)C(=O)N[C@H](C(=O)NCC(=O)N[C@@H](CO)C(=O)N[C@@H](CC(N)=O)C(=O)N[C@H](C(=O)N[C@@H](Cc1ccc(O)cc1)C(N)=O)[C@@H](C)O)C(C)C)[C@@H](C)O [Peptide 49, K(γE-γE-C18diacid)[CNTATC]ATQRLANFLVHSS(Aib)NFGPILPPTEVGSNTY-amide] (H-K([γGlu-γGlu-C18 diacid])CNTATCATQRLANFLVHSS[Aib]NFGPILPPTEVGSNTY-NH2; disulfide 2-7) | 12 | 334 | 4140
CC[C@H](C)[C@H](NC(=O)[C@@H]1CCCN1C(=O)CNC(=O)[C@H](Cc1ccccc1)NC(=O)[C@H](CC(N)=O)NC(=O)C(C)(C)NC(=O)[C@H](CO)NC(=O)[C@H](CO)NC(=O)[C@H](Cc1c[nH]cn1)NC(=O)[C@H](CCCNC(=N)N)NC(=O)[C@H](CC(C)C)NC(=O)[C@H](Cc1ccccc1)NC(=O)[C@H](CC(N)=O)NC(=O)[C@H](C)NC(=O)[C@H](CC(C)C)NC(=O)[C@H](CCCNC(=N)N)NC(=O)[C@H](CCC(N)=O)NC(=O)[C@@H](NC(=O)[C@H](C)NC(=O)[C@@H]1CSSC[C@H](NC(=O)[C@@H](N)CCCCNC(=O)CC[C@H](NC(=O)CC[C@H](NC(=O)CCCCCCCCCCCCCCCCC(=O)O)C(=O)O)C(=O)O)C(=O)N[C@@H](CC(N)=O)C(=O)N[C@@H]([C@@H](C)O)C(=O)N[C@@H](C)C(=O)N[C@@H]([C@@H](C)O)C(=O)N1)[C@@H](C)O)C(=O)N[C@@H](CC(C)C)C(=O)N1CCC[C@H]1C(=O)N1CCC[C@H]1C(=O)N[C@H](C(=O)N[C@@H](CCC(=O)O)C(=O)N[C@H](C(=O)NCC(=O)N[C@@H](CO)C(=O)N[C@@H](CC(N)=O)C(=O)N[C@H](C(=O)N[C@@H](Cc1ccc(O)cc1)C(N)=O)[C@@H](C)O)C(C)C)[C@@H](C)O [Peptide 50, K(γE-γE-C18diacid)[CNTATC]ATQRLANFLRHSS(Aib)NFGPILPPTEVGSNTY-amide] (H-K([γGlu-γGlu-C18 diacid])CNTATCATQRLANFLRHSS[Aib]NFGPILPPTEVGSNTY-NH2; disulfide 2-7; N-terminus assumed) | 54 | 349 | 18900
CC[C@H](C)[C@H](NC(=O)[C@@H]1CCCN1C(=O)CNC(=O)[C@H](Cc1ccccc1)NC(=O)[C@H](CC(N)=O)NC(=O)C(C)(C)NC(=O)[C@H](CO)NC(=O)[C@H](CO)NC(=O)[C@H](Cc1c[nH]cn1)NC(=O)[C@H](CO)NC(=O)[C@H](CC(C)C)NC(=O)[C@H](Cc1ccccc1)NC(=O)[C@H](CC(N)=O)NC(=O)[C@H](C)NC(=O)[C@H](CC(C)C)NC(=O)[C@H](CCCNC(=N)N)NC(=O)[C@H](CCC(N)=O)NC(=O)[C@@H](NC(=O)[C@H](C)NC(=O)[C@@H]1CSSC[C@H](NC(=O)[C@H](CCCCN)NC(=O)[C@@H](N)CCCCNC(=O)CC[C@H](NC(=O)CCCCCCCCCCCCCCCCC(=O)O)C(=O)O)C(=O)N[C@@H](CC(N)=O)C(=O)N[C@@H]([C@@H](C)O)C(=O)N[C@@H](C)C(=O)N[C@@H]([C@@H](C)O)C(=O)N1)[C@@H](C)O)C(=O)N[C@@H](CC(C)C)C(=O)N1CCC[C@H]1C(=O)N1CCC[C@H]1C(=O)N[C@H](C(=O)N[C@@H](CCCNC(=N)N)C(=O)N[C@H](C(=O)NCC(=O)N[C@@H](CO)C(=O)N[C@@H](CC(N)=O)C(=O)N[C@H](C(=O)N[C@@H](Cc1ccc(O)cc1)C(N)=O)[C@@H](C)O)C(C)C)[C@@H](C)O [Peptide 52, K(γE-C18diacid)K[CNTATC]ATQRLANFLSHSS(Aib)NFGPILPPTRVGSNTY-amide] (H-K([γGlu-C18 diacid])KCNTATCATQRLANFLSHSS[Aib]NFGPILPPTRVGSNTY-NH2; disulfide 3-8; N-terminus assumed) | 12 | 89 | 1100

Other lines, results leading:

Ratio (selectivity hAMYR vs hCTR, ratio of EC50 values at the two receptors) [1] | EC50 [1] [pM] | EC50 [2] [pM] | SMILES
2 | 218 | 468 | CC[C@H](C)[C@H](NC(=O)[C@@H]1CCCN1C(=O)CNC(=O)[C@H](Cc1ccccc1)NC(=O)[C@H](CC(N)=O)NC(=O)C(C)(C)NC(=O)[C@H](CO)NC(=O)[C@H](CO)NC(=O)[C@H](Cc1c[nH]cn1)NC(=O)[C@@H](NC(=O)[C@H](CC(C)C)NC(=O)[C@H](Cc1ccccc1)NC(=O)[C@H](Cc1c[nH]cn1)NC(=O)[C@H](C)NC(=O)[C@H](CC(C)C)NC(=O)[C@H](CCCNC(=N)N)NC(=O)[C@H](CCC(N)=O)NC(=O)[C@@H](NC(=O)[C@H](C)NC(=O)[C@@H]1CSSC[C@H](NC(=O)[C@H](CCCCN)NC(=O)[C@@H](N)CCCCNC(=O)CC[C@H](NC(=O)CCCCCCCCCCCCCCCCC(=O)O)C(=O)O)C(=O)N[C@@H](CC(N)=O)C(=O)N[C@@H]([C@@H](C)O)C(=O)N[C@@H](C)C(=O)N[C@@H]([C@@H](C)O)C(=O)N1)[C@@H](C)O)C(C)C)C(=O)N[C@@H](CC(C)C)C(=O)N1CCC[C@H]1C(=O)N1CCC[C@H]1C(=O)N[C@H](C(=O)N[C@@H](CC(N)=O)C(=O)N[C@H](C(=O)NCC(=O)N[C@@H](CO)C(=O)N[C@@H](CCC(=O)O)C(=O)N[C@H](C(=O)N[C@@H](Cc1ccc(O)cc1)C(N)=O)[C@@H](C)O)C(C)C)[C@@H](C)O [Peptide 47, K(γE-C18diacid)K[CNTATC]ATQRLAHFLVHSS(Aib)NFGPILPPTNVGSETY-amide] (H-K([γGlu-C18 diacid])KCNTATCATQRLAHFLVHSS[Aib]NFGPILPPTNVGSETY-NH2; disulfide 3-8; N-terminus assumed)
13 | 126 | 1640 | CC[C@H](C)[C@H](NC(=O)[C@@H]1CCCN1C(=O)CNC(=O)[C@H](Cc1ccccc1)NC(=O)[C@H](CC(N)=O)NC(=O)C(C)(C)NC(=O)[C@H](CO)NC(=O)[C@H](CO)NC(=O)[C@H](Cc1c[nH]cn1)NC(=O)[C@H](CO)NC(=O)[C@H](CC(C)C)NC(=O)[C@H](Cc1ccccc1)NC(=O)[C@H](CC(N)=O)NC(=O)[C@H](C)NC(=O)[C@H](CC(C)C)NC(=O)[C@H](CCCNC(=N)N)NC(=O)[C@H](CCC(N)=O)NC(=O)[C@@H](NC(=O)[C@H](C)NC(=O)[C@@H]1CSSC[C@H](NC(=O)[C@H](CCCCN)NC(=O)[C@@H](N)CCCCNC(=O)CC[C@H](NC(=O)CCCCCCCCCCCCCCCCC(=O)O)C(=O)O)C(=O)N[C@@H](CC(N)=O)C(=O)N[C@@H]([C@@H](C)O)C(=O)N[C@@H](C)C(=O)N[C@@H]([C@@H](C)O)C(=O)N1)[C@@H](C)O)C(=O)N[C@@H](CC(C)C)C(=O)N1CCC[C@H]1C(=O)N1CCC[C@H]1C(=O)N[C@H](C(=O)N[C@@H](Cc1c[nH]cn1)C(=O)N[C@H](C(=O)NCC(=O)N[C@@H](CO)C(=O)N[C@@H](CC(N)=O)C(=O)N[C@H](C(=O)N[C@@H](Cc1ccc(O)cc1)C(N)=O)[C@@H](C)O)C(C)C)[C@@H](C)O [Peptide 51, K(γE-C18diacid)K[CNTATC]ATQRLANFLSHSS(Aib)NFGPILPPTHVGSNTY-amide] (H-K([γGlu-C18 diacid])KCNTATCATQRLANFLSHSS[Aib]NFGPILPPTHVGSNTY-NH2; disulfide 3-8; N-terminus assumed)
